Results: PubChem BioAssay (NCI)
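How tested: cells in 96-well plates exposed to compound for 48 hours at five concentrations. At the TGI there is no net growth.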

Legend:
Assay in all cases: NCI-60 cell line screen, 48 h
CAKI-1 renal = system: CAKI-1 renal
NCI-H460 lung = system: NCI-H460 lung
786-0 renal = system: 786-0 renal
A549 NSCLC = system: A549 NSCLC
MDA-MB-435 = system: MDA-MB-435
SK-OV-3 ovarian = system: SK-OV-3 ovarian
TK-10 renal = system: TK-10 renal
SF-539 CNS = system: SF-539 CNS
SR leukemia = system: SR leukemia
SNB-75 CNS = system: SNB-75 CNS
RXF 393 renal = system: RXF 393 renal
SF-295 CNS = system: SF-295 CNS
A498 renal = system: A498 renal
UACC-62 melanoma = system: UACC-62 melanoma
CCRF-CEM leukemia = system: CCRF-CEM leukemia
ACHN renal = system: ACHN renal
HOP-62 NSCLC = system: HOP-62 NSCLC
K-562 leukemia = system: K-562 leukemia
LOX IMVI melanoma = system: LOX IMVI melanoma
COLO 205 colon = system: COLO 205 colon
BT-549 breast = system: BT-549 breast
M14 melanoma = system: M14 melanoma
MCF7 breast = system: MCF7 breast
HOP-92 NSCLC = system: HOP-92 NSCLC
DU-145 prostate = system: DU-145 prostate
HCT-116 colon = system: HCT-116 colon
HL-60(TB) leukemia = system: HL-60(TB) leukemia
HCT-15 colon = system: HCT-15 colon
U251 CNS = system: U251 CNS
UO-31 renal = system: UO-31 renal
SN12C renal = system: SN12C renal
KM12 colon = system: KM12 colon
HT29 colon = system: HT29 colon
HCC-2998 colon = system: HCC-2998 colon
PC-3 prostate = system: PC-3 prostate
SK-MEL-28 melanoma = system: SK-MEL-28 melanoma
OVCAR-4 ovarian = system: OVCAR-4 ovarian
RPMI-8226 leukemia = system: RPMI-8226 leukemia
SW-620 colon = system: SW-620 colon
SK-MEL-2 melanoma = system: SK-MEL-2 melanoma
MDA-N = system: MDA-N
OVCAR-5 ovarian = system: OVCAR-5 ovarian
UACC-257 melanoma = system: UACC-257 melanoma
IGROV1 ovarian = system: IGROV1 ovarian
OVCAR-3 ovarian = system: OVCAR-3 ovarian
SNB-19 CNS = system: SNB-19 CNS
T-47D breast = system: T-47D breast
NCI/ADR-RES ovarian = system: NCI/ADR-RES ovarian
SF-268 CNS = system: SF-268 CNS
SK-MEL-5 melanoma = system: SK-MEL-5 melanoma
EKVX NSCLC = system: EKVX NSCLC
OVCAR-8 ovarian = system: OVCAR-8 ovarian
MDA-MB-231 breast = system: MDA-MB-231 breast
MOLT-4 leukemia = system: MOLT-4 leukemia

O=C1CC(=O)N(C2CCCCC2)C(=O)N1c1ccccc1S(=O)(=O)Oc1ccccc1
TGI (CAKI-1 renal): > 100 µM
TGI (NCI-H460 lung): > 100 µM
TGI (786-0 renal): 33.3 µM
TGI (A549 NSCLC): > 100 µM
TGI (MDA-MB-435): > 100 µM
TGI (SK-OV-3 ovarian): > 100 µM
TGI (TK-10 renal): > 100 µM
TGI (SF-539 CNS): > 100 µM
TGI (SR leukemia): > 100 µM
TGI (SNB-75 CNS): > 100 µM
TGI (RXF 393 renal): > 100 µM
TGI (SF-295 CNS): > 100 µM
TGI (A498 renal): > 100 µM
TGI (UACC-62 melanoma): > 100 µM
TGI (CCRF-CEM leukemia): 54.5 µM
TGI (ACHN renal): 36.5 µM
TGI (HOP-62 NSCLC): > 100 µM
TGI (K-562 leukemia): 85.9 µM
TGI (LOX IMVI melanoma): 7.69 µM
TGI (COLO 205 colon): > 100 µM
TGI (BT-549 breast): > 100 µM
TGI (M14 melanoma): > 100 µM
TGI (MCF7 breast): > 100 µM
TGI (HOP-92 NSCLC): > 100 µM
TGI (DU-145 prostate): > 100 µM
TGI (HCT-116 colon): > 100 µM
TGI (HL-60(TB) leukemia): > 100 µM
TGI (HCT-15 colon): > 100 µM
TGI (U251 CNS): > 100 µM
TGI (UO-31 renal): 33 µM
TGI (SN12C renal): > 100 µM
TGI (KM12 colon): > 100 µM
TGI (HT29 colon): > 100 µM
TGI (HCC-2998 colon): > 100 µM
TGI (PC-3 prostate): > 100 µM
TGI (SK-MEL-28 melanoma): > 100 µM
TGI (OVCAR-4 ovarian): > 100 µM
TGI (RPMI-8226 leukemia): 97.1 µM
TGI (SW-620 colon): > 100 µM
TGI (SK-MEL-2 melanoma): > 100 µM
TGI (MDA-N): > 100 µM
TGI (OVCAR-5 ovarian): > 100 µM
TGI (UACC-257 melanoma): > 100 µM
TGI (IGROV1 ovarian): 30.2 µM
TGI (OVCAR-3 ovarian): > 100 µM
TGI (SNB-19 CNS): > 100 µM
TGI (T-47D breast): > 100 µM
TGI (NCI/ADR-RES ovarian): > 100 µM
TGI (SF-268 CNS): > 100 µM
TGI (SK-MEL-5 melanoma): > 100 µM
TGI (EKVX NSCLC): > 100 µM
TGI (OVCAR-8 ovarian): > 100 µM
TGI (MDA-MB-231 breast): > 100 µM
TGI (MOLT-4 leukemia): 37.8 µM
